We go through 5 compounds from EP0365089A2, “2-Aryl-5(3-methoxy-5-(hydroxypropylsulfonyl)-4-propoxyphenyl) tetrahydrothiophen and analogs” (MERCK & CO. INC., priority 1988, dated 1990).

Test [1] addresses T1, PAF binding to its specific receptor binding site on rabbit platelet plasma membranes (Oryctolagus cuniculus, UniProt G1TEI7).
T1 construct: from tissue; host or cells: rabbit platelet plasma membranes
Briefly: Inhibition of 3H-PAF binding to platelet plasma membrane (isotopic labeling and filtration). To be noted: for inhibition at 30000 µM: dose 30 mM; for inhibition at 30 µM: dose .03 mM. As to the method: In vitro, they inhibit PAF-induced functions in both the cellular and tissue levels by disturbing the PAF binding to its specific receptor site. The ability of a compound of formula (I) to inhibit the PAF binding to its specific receptor binding site on rabbit platelet plasma membranes was measured by an assay developed by us.
The inhibition of H^3-PAF binding to human or rabbit platelet plasma membrane by a PAF-antagonist of Formula (I) was determined by a method employing isotopic labeling and filtration techniques. Generally, a series of Tris-buffered solutions of the selected antagonist at predetermined concentrations were prepared. Each of these solutions contains 1 pmole of ^3H-PAF, a known amount of the test antagonist, and a sufficient amount of the pH 7.0 Tris-buffer solution (10mM Tris, 0.25% bovine serum albumin, and 10 mM MgC12 per ml water) to make the final volume of 1 ml. After adding into a set of test tubes each with 100 αg of the platelet plasma […] suspension and one of the Tris-buffer solutions described above, the resulting mixture in each test tube was incubated at 0 C for about one hour or until the reaction was complete. Two control samples, one of which (Ci) contains all the ingredients described above except the antagonist and the other (C2) contains C1 plus a 1000-fold excess of unlabeled PAF, were also prepared and incubated simultaneously with the test samples. After the incubation was completed, the contents of each test tube were filtered under vacuo through a Whatman GF/C fiberglass filter and the residue washed rapidly several times with a total of 20 ml cold (0°-5°C) Tris-buffer solution. Each washed residue was then suspended in 10 ml scintillation solution (Aquasol 2, New England Nuclear, Connecticut) and the radioactivity was counted in a Packard Tri-Carb 460CD Liquid Scintillation System. Defining the counts from a test sample as "Total binding with antagonist"; the counts from the control sample C1, as "Total binding C1"; and the counts from the control sample C2 as "non-specific binding C2", the percent inhibition of each test antagonist can be determined by the following equation: [formula] Specific binding =(Total binding C1)-(non-specific binding C2)

A further test deals with PAF. Put plainly: PAF-antagonist activity, test not specified. Particulars: ranking in words, no test named.
In test [2] the test system is PAF-induced symptoms including decreased arterial blood flow, increased vascular permeability and increased degranulation in rats. Briefly: Oral activity of PAF-antagonists in inhibiting PAF-induced symptoms in rats. It is filed as in vivo. To be noted: oral dose 1 mg/kg, male rats weighing about 190-220g. The method, then:
• 1.) Fast rats overnight. • 2.) Weigh the rats the morning after fasting, • 3.) Suspend a test compound in 0.5% methylcellulose with 12 ounce hand homogenizer or a sonicator if necessary to yield a fine suspension. […] After the beginning of the PAF infusion as well as just before the PAF infusion, measure the following three parameters for each blood sample: • a) the arterial blood flow rate: determined by measuring the time to fill a pre-calibrated 14 µl capillary tube; • b) the vascular permeability: measured by calculating the increased hematocrit which results from loss of plasma from the circulation to extra-vascular spaces. • c) the circulatory degranulation: determined by assaying the increased plasma level of N-acetylglucosaminidase, a marker lysosomal enzyme. • 7.) Determine the percent change in each parameter of a blood sample at each post-PAF interval including the 30 minute interval, relative to the pre-PAF blood values. • 8.) Calculate the percent inhibition by the formula: % inhibition = [formula]

As usually defined, the inhibition is how much of the control response was suppressed. The low end stands for a weak effect, the high end for a strong effect.

T1 sequence (G1TEI7 1-342): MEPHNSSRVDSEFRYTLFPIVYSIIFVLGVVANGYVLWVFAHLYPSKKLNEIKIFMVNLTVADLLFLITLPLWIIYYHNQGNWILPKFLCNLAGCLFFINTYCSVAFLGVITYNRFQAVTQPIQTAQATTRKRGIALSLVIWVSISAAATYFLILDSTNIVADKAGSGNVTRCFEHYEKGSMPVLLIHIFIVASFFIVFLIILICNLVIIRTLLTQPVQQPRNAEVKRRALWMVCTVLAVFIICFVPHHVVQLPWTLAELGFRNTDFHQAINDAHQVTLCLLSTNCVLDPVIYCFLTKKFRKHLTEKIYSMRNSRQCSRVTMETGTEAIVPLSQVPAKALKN

The compound `CCCOc1c(C#N)cc([C@H]2CC[C@H](c3cc(OC)c(OC)c(OC)c3)S2)cc1OC` (relative stereo) [3-cyano-4-propoxy-5-methoxyphenyl, trans-2-(3,4,5-trimethoxyphenyl)-5-(5-cyano-3-methoxy-4-propoxyphenyl)-tetrahydrothiophene] returned an inhibition at 30000 µM in test [1] of 27%.
`CCOc1c(OC)cc([C@H]2CC[C@H](c3cc(OC)c(OC)c(OC)c3)S2)cc1C(=O)Nc1cccc(Cl)c1` (relative stereo) [(3-chlorophenyl-aminocarbonyl)phenyl, trans-2-(3,4,5-trimethoxyphenyl)-5-(3-methoxy-4-ethoxy-5-(3-chlorophenylaminocarbonyl)-phenyl)tetrahydrothiophene] had an inhibition at 30000 µM in test [1] of 6%. Further, the PAF-antagonist activity entry with PAF is “most active”.
Compound `CCCOc1c(OC)cc([C@H]2CC[C@H](c3cc(OC)c(OC)c(OC)c3)S2)cc1S(=O)(=O)CC(C)O` (relative stereo) [Trans-2-(3,4,5-trimethoxyphenyl)-5-(3-methoxy-5-(2-hydroxypropylsulfonyl)-4-propoxyphenyl)-tetrahydrothiophene] displayed an inhibition at 3 µM in test [1] (dose .003 mM) of 57%. Further, at 30 µM the inhibition in test [1] was 89%. In test [2], the “%inhibition A = increased vascular permeability” value is 60% and the “%inhibition B = increased degranulation” value was 62%. For the same compound, the PAF-antagonist activity result with PAF is listed as “most active”.
Consider `COc1cc(C2CCC(c3cc(OC)c(OC)c(OC)c3)S2)cnc1OC` (centres unmarked) [5,6-di-methoxy-3-pyridyl], for which the inhibition at 1000 µM in test [1] (dose 1 mM) amounted to 80%. Also, in test [1] (dose 5 mM), testing at 5000 µM gave an inhibition of 96%.
In test [1], `COc1cc(C2CCC(c3cc(OC)c(OC)c(OC)c3)S2)cc(OC)c1OC` (centres unmarked) [same as Ar] yielded an inhibition at 30 µM of 69%.
